# Results as given in patent publication US20220287976A1, “AMMONIA AS A PROCESSING AID FOR SPRAYED SOLID DISPERSIONS” (Capsugel Belgium NV, priority 2019, published 2022).
# How the values were obtained:
# [1] = Concentration enhancement in methanol with ammonia; assay type: physicochemical; settings: for concentration in methanol in the presence of ammonia: methanol with about 1.07 molar equivalents of ammonia, completely dissolved; for time to dissolution after addition of ammonia: slurry in methanol, 2.14 M ammonia in methanol added with stirring; for solubility enhancement in methanol in the presence of ammonia: versus crystalline solubility in methanol without ammonia
# Description: A second mixture of sulfasalazine in methanol was prepared by stirring 656.0 mg of sulfasalazine (1.65 mmol) in 14.00 mL of methanol. To this slurry, 0.825 mL of 2.14 M ammonia (1.76 mmol) in methanol was added with stirring resulting in complete dissolution of sulfasalazine within 1 minute.
# A second mixture of piroxicam in methanol was prepared by stirring 661.8 mg of piroxicam (2.00 mmol) in 15.00 mL of methanol.
# [2] = Crystalline solubility in methanol (saturated solution, thermogravimetric analysis of supernatant); assay type: physicochemical; settings: organic solvent or mixture, thermodynamic from solid, no ammonia
# Description: A saturated solution of sulfasalazine (Spectrum Chemical) was prepared in methanol with excess crystalline sulfasalazine.
# A saturated solution of piroxicam (Spectrum Chemical) was prepared in methanol with excess crystalline piroxicam.
concentration in methanol in the presence of ammonia [1],time to dissolution after addition of ammonia [1] [min],solubility enhancement in methanol in the presence of ammonia [1],solubility [2] [µg/mL],SMILES
greater than 41 mg/mL,≤ 1,greater than 19 fold,~2100,CN1C(C(=O)Nc2ccccn2)=C(O)c2ccccc2S1(=O)=O [piroxicam]
greater than 43 mg/mL,≤ 1,about 43 fold,~1000,O=C(O)c1cc(/N=N/c2ccc(S(=O)(=O)Nc3ccccn3)cc2)ccc1O [sulfasalazine]
